Measured values from patent US20090258883A1, “1H-Indole-Pyridinecarboxamide and 1H-Indole-Piperidinecarboxamide Compounds” (LES LABORATOIRES SERVIER, priority 2005, published 2009).
Marks after values point to notes of the source that are not given here.

Columns and labels:
[1] = biological target: 5HT receptors (type 5HT2A) (Homo sapiens, UniProt P28223); assay: Affinity for receptors, displacement of labelled specific ligand: 5HT2A; format: binding
muscarinic (M) receptors = assay: Affinity for receptors, displacement of labelled specific ligand: muscarinic; format: binding
Method: (§1) The affinity for receptors is determined according to customary methods of relations between the specific ligand and the receptor, which may be of animal origin or a human recombinant. The affinity was determined by the method of displacement of the labelled specific ligand by the compound under test and expressed by the dissociation constant KI. The receptor affinity was accordingly studied for 28 conventional receptors.

[2] = Predicted metabolic stability, human hepatic microsomes; format: in vitro ADME; conditions: 10^−7 M, human hepatic microsomes 0.33 mg of prot/ml, NADPH
Method: (§2) The predicted metabolic stability is tested by incubation of the compounds at a concentration of 10^−7M in the presence of mouse, rat or human hepatic microsomes (0.33 mg of prot/ml). After addition of NADPH (nicotinamide adenine dinucleotide phosphate, reduced form), samples are taken at 0, 5, 15, 30 and 60 minutes. The enzymatic reaction is stopped using methanol (V/V). The protein is precipitated by centrifugation and the supernatant is analysed by LC-MS-MS.

[3] = biological target: dopaminergic receptors (type D1) (Homo sapiens, UniProt P21728); assay: Affinity for receptors, displacement of labelled specific ligand: D1; format: binding
[4] = tested on: sigma (σ) receptors (ligand: haloperidol); assay: Affinity for receptors, displacement of labelled specific ligand: sigma; format: binding; conditions: concentration 10^−5 M
Method: as §1

[5] = tested on: tyrosine hydroxylase (TH) protein; assay: Induction of tyrosine hydroxylase (TH) in LC, SN and VTA of the mouse brain; format: in vivo, Balb/C mouse; conditions: three days after single injection, relative to mean value of control group
From the text: A search is made among the compounds for those which are capable of bringing about an increase in the tyrosine hydroxylase (TH) protein in the locus coeruleus (LC), substantia nigra (SN) and ventral tegmental area (VTA) of the brain of the Balb/C mouse. The animals used are consanguinal male mice of the pure Balb/C strain (Charles River Laboratories) aged 6 weeks at the time of treatment.
The mice are given a single injection, by the intraperitoneal route, of the compound under test, dissolved in 0.04M HCl solution (corresponding control: 0.04M HCl), if the compound is sufficiently soluble, or in olive oil 90%/DMSO 10% (corresponding control: olive oil 90%/DMSO 10%) for compounds that are insoluble in an aqueous medium. The volume injected is 100 μl. The test groups comprise 10 animals.
Three days after the injection of each compound, all the animals are sacrificed by decapitation. The brains are removed and then frozen in an isopentane solution at −30° C. for 45 seconds and subsequently stored at −80° C.
Serial coronal sections 20 microns thick are then taken using a cryomicrotome. Each structure of interest is then sampled along the posterior-anterior axis of the brain by taking sections at 80-micron spacings in the case of the LC and at 80- or 160-micron spacings in the case of the VTA and SN. The limits of those structures are those described in the atlas of Franklin and Paxinos. The total proteins of each of those sections are transferred by direct collection of the sections to a nitrocellulose filter (Millipore). The amounts of TH present in each sample are measured by immunochemistry, fluorimetric detection and image analysis.

[6] = Predicted metabolic stability, mouse hepatic microsomes; format: in vitro ADME; conditions: 10^−7 M, mouse hepatic microsomes 0.33 mg of prot/ml, NADPH
Method: as §2

[7] = Predicted metabolic stability, rat hepatic microsomes; format: in vitro ADME; conditions: 10^−7 M, rat hepatic microsomes 0.33 mg of prot/ml, NADPH
Method: as §2

[8] = biological target: dopaminergic receptors (type D2) (Homo sapiens, UniProt P14416); assay: Affinity for receptors, displacement of labelled specific ligand: D2; format: binding
Chain of dopaminergic receptors (type D2) (P14416 whole entry): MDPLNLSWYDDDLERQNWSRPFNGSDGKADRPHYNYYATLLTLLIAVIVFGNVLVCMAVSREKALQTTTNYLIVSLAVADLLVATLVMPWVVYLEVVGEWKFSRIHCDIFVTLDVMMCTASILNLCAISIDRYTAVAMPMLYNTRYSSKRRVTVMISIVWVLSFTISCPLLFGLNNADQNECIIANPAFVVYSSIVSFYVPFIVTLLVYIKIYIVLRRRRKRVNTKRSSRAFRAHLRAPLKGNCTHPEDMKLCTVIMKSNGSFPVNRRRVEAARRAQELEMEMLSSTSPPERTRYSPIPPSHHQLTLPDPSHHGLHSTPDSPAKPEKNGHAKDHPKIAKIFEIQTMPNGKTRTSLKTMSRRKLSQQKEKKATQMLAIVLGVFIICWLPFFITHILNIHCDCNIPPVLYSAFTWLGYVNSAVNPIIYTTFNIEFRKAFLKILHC

Chain of dopaminergic receptors (type D1) (P21728 whole entry): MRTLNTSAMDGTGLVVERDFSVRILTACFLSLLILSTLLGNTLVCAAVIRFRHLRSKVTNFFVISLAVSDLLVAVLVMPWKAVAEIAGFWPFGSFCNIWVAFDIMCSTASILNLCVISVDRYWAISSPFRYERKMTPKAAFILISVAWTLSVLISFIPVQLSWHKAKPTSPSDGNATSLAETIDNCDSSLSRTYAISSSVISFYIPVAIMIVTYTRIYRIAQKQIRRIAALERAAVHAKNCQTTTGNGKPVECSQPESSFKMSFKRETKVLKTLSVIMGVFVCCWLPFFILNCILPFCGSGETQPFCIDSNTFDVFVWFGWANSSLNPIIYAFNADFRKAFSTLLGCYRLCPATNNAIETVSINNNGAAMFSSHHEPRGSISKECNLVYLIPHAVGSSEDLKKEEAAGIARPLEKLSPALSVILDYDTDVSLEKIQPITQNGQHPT
Chain of 5HT receptors (type 5HT2A) (P28223 whole entry): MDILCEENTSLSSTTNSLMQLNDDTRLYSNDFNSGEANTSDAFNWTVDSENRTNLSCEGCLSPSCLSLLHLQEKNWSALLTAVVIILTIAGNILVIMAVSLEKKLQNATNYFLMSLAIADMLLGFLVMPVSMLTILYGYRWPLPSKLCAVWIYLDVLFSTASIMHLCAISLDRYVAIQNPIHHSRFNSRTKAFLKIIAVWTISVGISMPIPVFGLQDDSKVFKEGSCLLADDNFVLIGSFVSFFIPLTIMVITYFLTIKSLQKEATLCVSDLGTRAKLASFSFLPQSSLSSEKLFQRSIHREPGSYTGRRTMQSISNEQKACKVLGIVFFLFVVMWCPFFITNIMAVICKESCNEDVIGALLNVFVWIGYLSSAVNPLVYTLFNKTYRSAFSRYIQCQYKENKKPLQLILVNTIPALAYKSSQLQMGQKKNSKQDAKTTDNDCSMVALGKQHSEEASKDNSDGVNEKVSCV

CN1CCN(CCN2CCC=C(C(=O)Nn3ccc4cc(Cl)ccc43)C2)CC1 [Example 47, N-(5-Chloroindol-1-yl)-1-[2-(4-methylpiperazin-1-yl)ethyl]-1,2,5,6-tetrahydropyridine-3-carboxamide]
inhibition at 10 µM ([1]; concentration 10^−5 M): 15% | inhibition at 0.1 µM ([1]; concentration 10^−7 M): 10% | % inhibition M (muscarinic (M) receptors; concentration 10^−5 M): 10% | % inhibition M (muscarinic (M) receptors; concentration 10^−7 M): 19% | % metabolic stability predicted using hepatic microsomes, Human [2]: 78% | inhibition at 10 µM ([3]; concentration 10^−5 M): < 10% | inhibition at 0.1 µM ([3]; concentration 10^−7 M): < 10% | % inhibition σ [4]: 67% | amount of TH in LC section 1 ([5]; LC section 1 (posterior-to-anterior), i.p. 20 mg/kg): 232** % | amount of TH in LC section 2 ([5]; LC section 2, i.p. 20 mg/kg): 138* % | amount of TH in LC section 3 ([5]; LC section 3, i.p. 20 mg/kg): 176** % | amount of TH in LC section 4 ([5]; LC section 4, i.p. 20 mg/kg): 179** % | amount of TH in LC section 5 ([5]; LC section 5, i.p. 20 mg/kg): 172** % | amount of TH in LC section 6 ([5]; LC section 6, i.p. 20 mg/kg): 169** % | amount of TH in LC section 7 ([5]; LC section 7, i.p. 20 mg/kg): 153** % | amount of TH in LC section 8 ([5]; LC section 8, i.p. 20 mg/kg): 140** % | amount of TH in LC section 9 ([5]; LC section 9, i.p. 20 mg/kg): 84* % | amount of TH in LC section 10 ([5]; LC section 10, i.p. 20 mg/kg): 88% | amount of TH in LC section 11 ([5]; LC section 11, i.p. 20 mg/kg): 127% | amount of TH, LC, total ([5]; LC total, i.p. 20 mg/kg): 147** % | % metabolic stability predicted using hepatic microsomes, Mouse [6]: 53% | % metabolic stability predicted using hepatic microsomes, Rat [7]: 87% | inhibition at 10 µM ([8]; concentration 10^−5 M): < 10% | inhibition at 0.1 µM ([8]; concentration 10^−7 M): < 10%
